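Interpolation was linear, between the two tested concentrations surrounding the appropriate level; five concentrations were tested over 48 hours in 96-well plates. The concentration for full growth arrest is given as TGI.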
test system: KM12 colon; assay: NCI anticancer screen, dose series, 48 h

| SMILES | TGI [µM] |
| --- | --- |
| CC1(CO)COC(C)(C)OC1 | > 100 |
| CC12CP(=O)(c3ccccc3)CC1c1ccccc1C2c1ccccc1 (centres undefined) | 33.6 |
| CN(C)/C=C1\CCc2ccc([N+](=O)[O-])cc2C1=O | > 100 |

test system: SK-OV-3 ovarian; assay: NCI anticancer screen, dose series, 48 h

| SMILES | TGI [µM] |
| --- | --- |
| CCOC(=O)C(=O)/C(=C/n1c(=S)[nH]c2ccc([N+](=O)[O-])cc21)C(=O)OCC | > 100 |
| CCOC(=O)c1csc(NC(=O)CN(C)C)n1 | > 100 |
| CC1(CO)COC(C)(C)OC1 | > 100 |
| CC12CP(=O)(c3ccccc3)CC1c1ccccc1C2c1ccccc1 (centres undefined) | > 100 |
| CN(C)/C=C1\CCc2ccc([N+](=O)[O-])cc2C1=O | > 100 |

test system: DU-145 prostate; assay: NCI anticancer screen, dose series, 48 h

| SMILES | TGI [µM] |
| --- | --- |
| CCOC(=O)C(=O)/C(=C/n1c(=S)[nH]c2ccc([N+](=O)[O-])cc21)C(=O)OCC | > 100 |
| CCOC(=O)c1csc(NC(=O)CN(C)C)n1 | > 100 |
| CC1(CO)COC(C)(C)OC1 | > 100 |
| CC12CP(=O)(c3ccccc3)CC1c1ccccc1C2c1ccccc1 (centres undefined) | 64 |
| CN(C)/C=C1\CCc2ccc([N+](=O)[O-])cc2C1=O | > 100 |

test system: SK-MEL-28 melanoma; assay: NCI anticancer screen, dose series, 48 h

| SMILES | TGI [µM] |
| --- | --- |
| CCOC(=O)C(=O)/C(=C/n1c(=S)[nH]c2ccc([N+](=O)[O-])cc21)C(=O)OCC | > 100 |
| CCOC(=O)c1csc(NC(=O)CN(C)C)n1 | > 100 |
| CC1(CO)COC(C)(C)OC1 | > 100 |
| CC12CP(=O)(c3ccccc3)CC1c1ccccc1C2c1ccccc1 (centres undefined) | 75 |
| CN(C)/C=C1\CCc2ccc([N+](=O)[O-])cc2C1=O | > 100 |

test system: TK-10 renal; assay: NCI anticancer screen, dose series, 48 h

| SMILES | TGI [µM] |
| --- | --- |
| CCOC(=O)C(=O)/C(=C/n1c(=S)[nH]c2ccc([N+](=O)[O-])cc21)C(=O)OCC | > 100 |
| CCOC(=O)c1csc(NC(=O)CN(C)C)n1 | > 100 |
| CC1(CO)COC(C)(C)OC1 | > 100 |
| CC12CP(=O)(c3ccccc3)CC1c1ccccc1C2c1ccccc1 (centres undefined) | > 100 |
| CN(C)/C=C1\CCc2ccc([N+](=O)[O-])cc2C1=O | > 100 |

test system: SK-MEL-2 melanoma; assay: NCI anticancer screen, dose series, 48 h

| SMILES | TGI [µM] |
| --- | --- |
| CCOC(=O)C(=O)/C(=C/n1c(=S)[nH]c2ccc([N+](=O)[O-])cc21)C(=O)OCC | > 100 |
| CCOC(=O)c1csc(NC(=O)CN(C)C)n1 | > 100 |
| CC12CP(=O)(c3ccccc3)CC1c1ccccc1C2c1ccccc1 (centres undefined) | 49.4 |
| CN(C)/C=C1\CCc2ccc([N+](=O)[O-])cc2C1=O | > 100 |

test system: SK-MEL-5 melanoma; assay: NCI anticancer screen, dose series, 48 h

| SMILES | TGI [µM] |
| --- | --- |
| CCOC(=O)C(=O)/C(=C/n1c(=S)[nH]c2ccc([N+](=O)[O-])cc21)C(=O)OCC | > 100 |
| CCOC(=O)c1csc(NC(=O)CN(C)C)n1 | > 100 |
| CC1(CO)COC(C)(C)OC1 | > 100 |
| CC12CP(=O)(c3ccccc3)CC1c1ccccc1C2c1ccccc1 (centres undefined) | 55.1 |
| CN(C)/C=C1\CCc2ccc([N+](=O)[O-])cc2C1=O | > 100 |

test system: HCT-116 colon; assay: NCI anticancer screen, dose series, 48 h

| SMILES | TGI [µM] |
| --- | --- |
| CCOC(=O)C(=O)/C(=C/n1c(=S)[nH]c2ccc([N+](=O)[O-])cc21)C(=O)OCC | > 100 |
| CC1(CO)COC(C)(C)OC1 | > 100 |
| CC12CP(=O)(c3ccccc3)CC1c1ccccc1C2c1ccccc1 (centres undefined) | 30.4 |
| CN(C)/C=C1\CCc2ccc([N+](=O)[O-])cc2C1=O | 36 |

test system: SR leukemia; assay: NCI anticancer screen, dose series, 48 h

| SMILES | TGI [µM] |
| --- | --- |
| CCOC(=O)C(=O)/C(=C/n1c(=S)[nH]c2ccc([N+](=O)[O-])cc21)C(=O)OCC | > 100 |
| CCOC(=O)c1csc(NC(=O)CN(C)C)n1 | > 100 |
| CC1(CO)COC(C)(C)OC1 | > 100 |
| CC12CP(=O)(c3ccccc3)CC1c1ccccc1C2c1ccccc1 (centres undefined) | 29.8 |
| CN(C)/C=C1\CCc2ccc([N+](=O)[O-])cc2C1=O | 74.2 |

test system: HT29 colon; assay: NCI anticancer screen, dose series, 48 h

| SMILES | TGI [µM] |
| --- | --- |
| CCOC(=O)C(=O)/C(=C/n1c(=S)[nH]c2ccc([N+](=O)[O-])cc21)C(=O)OCC | > 100 |
| CCOC(=O)c1csc(NC(=O)CN(C)C)n1 | > 100 |
| CC1(CO)COC(C)(C)OC1 | > 100 |
| CC12CP(=O)(c3ccccc3)CC1c1ccccc1C2c1ccccc1 (centres undefined) | 28.8 |
| CN(C)/C=C1\CCc2ccc([N+](=O)[O-])cc2C1=O | 53.7 |

test system: SF-539 CNS; assay: NCI anticancer screen, dose series, 48 h

| SMILES | TGI [µM] |
| --- | --- |
| CCOC(=O)C(=O)/C(=C/n1c(=S)[nH]c2ccc([N+](=O)[O-])cc21)C(=O)OCC | > 100 |
| CCOC(=O)c1csc(NC(=O)CN(C)C)n1 | > 100 |
| CC12CP(=O)(c3ccccc3)CC1c1ccccc1C2c1ccccc1 (centres undefined) | 34.1 |

test system: CAKI-1 renal; assay: NCI anticancer screen, dose series, 48 h

| SMILES | TGI [µM] |
| --- | --- |
| CCOC(=O)C(=O)/C(=C/n1c(=S)[nH]c2ccc([N+](=O)[O-])cc21)C(=O)OCC | > 100 |
| CCOC(=O)c1csc(NC(=O)CN(C)C)n1 | > 100 |
| CN(C)/C=C1\CCc2ccc([N+](=O)[O-])cc2C1=O | > 100 |

test system: RPMI-8226 leukemia; assay: NCI anticancer screen, dose series, 48 h

| SMILES | TGI [µM] |
| --- | --- |
| CCOC(=O)C(=O)/C(=C/n1c(=S)[nH]c2ccc([N+](=O)[O-])cc21)C(=O)OCC | > 100 |
| CCOC(=O)c1csc(NC(=O)CN(C)C)n1 | > 100 |
| CN(C)/C=C1\CCc2ccc([N+](=O)[O-])cc2C1=O | 62.2 |

test system: LOX IMVI melanoma; assay: NCI anticancer screen, dose series, 48 h

| SMILES | TGI [µM] |
| --- | --- |
| CCOC(=O)C(=O)/C(=C/n1c(=S)[nH]c2ccc([N+](=O)[O-])cc21)C(=O)OCC | > 100 |
| CCOC(=O)c1csc(NC(=O)CN(C)C)n1 | > 100 |
| CC1(CO)COC(C)(C)OC1 | > 100 |
| CN(C)/C=C1\CCc2ccc([N+](=O)[O-])cc2C1=O | 42.6 |

test system: MOLT-4 leukemia; assay: NCI anticancer screen, dose series, 48 h

| SMILES | TGI [µM] |
| --- | --- |
| CCOC(=O)C(=O)/C(=C/n1c(=S)[nH]c2ccc([N+](=O)[O-])cc21)C(=O)OCC | > 100 |
| CCOC(=O)c1csc(NC(=O)CN(C)C)n1 | > 100 |
| CC1(CO)COC(C)(C)OC1 | > 100 |
| CC12CP(=O)(c3ccccc3)CC1c1ccccc1C2c1ccccc1 (centres undefined) | 31 |
| CN(C)/C=C1\CCc2ccc([N+](=O)[O-])cc2C1=O | 51 |

Reference: PubChem BioAssay (NCI)
